Experimental data from ChEMBL document CHEMBL3351690, “Design, synthesis and structure--activity relationship (SAR) studies of imidazo[4,5-b]pyridine derived purine isosteres and their potential as cytotoxic agents” (Eur J Med Chem, 2015).

Legend:
MDA-MB-231 [1] = assay: Cytotoxicity against paclitaxel-resistant human MDA-MB-231 cells after 24 hrs by MTT assay; format: functional, cell-based; conditions: MDA-MB-231, 24 h
[2] = Stability in human liver microsomes at 1 uM pre-incubated for 5 mins in presence of NADPH and measured after 45 mins by LC/MS method; format: ADME; conditions: read-out: Stability
[3] = Stability in mouse liver microsomes at 1 uM pre-incubated for 5 mins in presence of NADPH and measured after 45 mins by LC/MS method; format: ADME; conditions: read-out: Stability
MDA-MB-231 [4] = assay: Inhibition of cell proliferation of paclitaxel-resistant human MDA-MB-231 cells at 10 uM after 24 hrs by MTT assay; format: functional; conditions: MDA-MB-231, 24 h
[5] = Cytotoxicity against human MES-SA cells after 24 hrs by MTT assay; format: functional, cell-based
[6] = Cytotoxicity against human MES-SA/Dx5 cells after 24 hrs by MTT assay; format: functional, cell-based; conditions: MES-SA/Dx5, 24 h
[7] = Cytotoxicity against human MDA435 cells after 24 hrs by MTT assay; format: functional, cell-based; conditions: MDA-MB-435, 24 h
[8] = Cytotoxicity against human HL60 cells after 24 hrs by MTT assay; format: functional, cell-based; conditions: HL-60, 24 h

c1ccc(-c2nc3cccnc3n2C2CCCC2)cc1 showed an IC50 (MDA-MB-231 [1]) of 3000 nM.

Compound c1ccc(-c2nc3ncccc3n2C2CCCC2)cc1 has an IC50 (MDA-MB-231 [1]) of 7000 nM.

With Cn1c(-c2ccccc2)nc2cccnc21 the IC50 (MDA-MB-231 [1]) was 4100 nM.

Compound Fc1ccc(-c2nc3cccnc3n2C2CCCC2)cc1 has an IC50 (MDA-MB-231 [1]) of 500 nM.

Fc1cc(F)cc(-c2nc3cccnc3n2C2CCCC2)c1 gave an IC50 (MDA-MB-231 [1]) of 138 nM.

Work on Fc1cc(F)cc(-c2nc3ncccc3n2C2CCCCC2)c1 yielded an IC50 (MDA-MB-231 [1]) of 3800 nM.

Compound Cn1c(-c2cc(F)cc(F)c2)nc2ncccc21 has an IC50 (MDA-MB-231 [1]) of 2700 nM.

Compound FC(F)(F)c1cc(-c2nc3cccnc3n2C2CCCC2)cc(C(F)(F)F)c1 has an IC50 (MDA-MB-231 [1]) of 112 nM.

In the case of FC(F)(F)Oc1cccc(-c2nc3cccnc3n2C2CCCC2)c1, the IC50 (MDA-MB-231 [1]) is reported as 262 nM.

With Fc1cccc(-c2nc3cccnc3n2C2CCCCC2)c1 the IC50 (MDA-MB-231 [1]) was 342 nM.

With Cc1ccc(-c2nc3cccnc3n2C2CCCCC2)cc1 the IC50 (MDA-MB-231 [1]) was 7000 nM.

Compound CCS(=O)(=O)c1cccc(-c2nc3cccnc3n2C2CCCCC2)c1 has an IC50 (MDA-MB-231 [1]) of 164 nM.

With Cc1cccc(-c2nc3cccnc3n2C2CCCC2)c1Cl the IC50 (MDA-MB-231 [1]) was 646 nM.

Compound CN(C)c1cccc(-c2nc3cccnc3n2C2CCCC2)c1 has an IC50 (MDA-MB-231 [1]) of 455 nM.

N#Cc1ccc(-c2nc3cccnc3n2C2CCCC2)cc1F showed an IC50 (MDA-MB-231 [1]) of 2000 nM.

For COc1ccc(-c2nc3cccnc3n2C2CCCCC2)cc1, the IC50 (MDA-MB-231 [1]) was 112 nM.

Compound c1ccc(Oc2ccc(-c3nc4cccnc4n3C3CCCC3)cc2)cc1 has an IC50 (MDA-MB-231 [1]) greater than 10000 nM.

With O=C(O)c1ccc(-c2nc3cccnc3n2C2CCCC2)cc1 the remaining at 0.75 h, 1 µM [2] was 80%, the IC50 (MDA-MB-231 [1]) was 600 nM and the remaining at 0.75 h, 1 µM [3] was 80%.

Work on COC(=O)c1ccc(-c2nc3cccnc3n2C2CCCC2)cc1 yielded a remaining at 0.75 h, 1 µM [2] of 52%, an IC50 (MDA-MB-231 [1]) of 350 nM and an inhibition at 10 µM (MDA-MB-231 [4]) of 25%. It also gave a remaining at 0.75 h, 1 µM [3] of 52%.

Work on O=C(NC1CC1)c1ccc(-c2nc3cccnc3n2C2CCCC2)cc1 yielded a remaining at 0.75 h, 1 µM [2] of 42%, an IC50 (MDA-MB-231 [1]) of 115 nM and an inhibition at 10 µM (MDA-MB-231 [4]) of 42%. The remaining at 0.75 h, 1 µM [3] was 42%.

For CCNC(=O)c1ccc(-c2nc3cccnc3n2C2CCCC2)cc1, the IC50 (MDA-MB-231 [1]) was 320 nM.

O=C(NCc1ccccc1)c1ccc(-c2nc3cccnc3n2C2CCCC2)cc1 showed an IC50 (MDA-MB-231 [1]) of 620 nM.

NC(=O)c1ccc(-c2nc3cccnc3n2C2CCCC2)cc1 showed an IC50 (MDA-MB-231 [1]) of 8000 nM.

With CN(C)C(=O)c1ccc(-c2nc3cccnc3n2C2CCCC2)cc1 the IC50 (MDA-MB-231 [1]) was 520 nM.

In the case of c1cnc2c(c1)nc(-c1cncnc1)n2C1CCCC1, the IC50 (MDA-MB-231 [1]) is reported as greater than 10000 nM.

In the case of Cc1nnc(-c2ccc(-c3nc4cccnc4n3C3CCCC3)cc2)o1, the remaining at 0.75 h, 1 µM [2] is reported as 75%, the IC50 (MDA-MB-231 [1]) is reported as 21 nM and the IC50 [5] is reported as 25 nM. It also gave an IC50 [6] of 80 nM, an inhibition at 10 µM (MDA-MB-231 [4]) of 77.3% and a remaining at 0.75 h, 1 µM [3] of 75%. It also gave an IC50 [7] of 28 nM and an IC50 [8] of 70 nM.

CN(C)c1ncc(-c2nc3cccnc3n2C2CCCC2)cn1 gave an IC50 (MDA-MB-231 [1]) of 45 nM.

Work on Cc1ccsc1-c1nc2cccnc2n1C1CCCC1 yielded an IC50 (MDA-MB-231 [1]) of 138 nM.

For COc1ncc(-c2nc3cccnc3n2C2CCCC2)c(OC)n1, the IC50 (MDA-MB-231 [1]) was greater than 10000 nM.

For c1ccc(Cn2nccc2-c2nc3cccnc3n2C2CCCC2)cc1, the IC50 (MDA-MB-231 [1]) was 348 nM.

Compound Cc1cc(-c2nc3cccnc3n2C2CCCC2)cnc1F has an IC50 (MDA-MB-231 [1]) of 70 nM.

Work on COc1ccc(-c2nc3cccnc3n2C2CCCC2)cn1 yielded an IC50 (MDA-MB-231 [1]) of 219 nM.

c1cnc2c(c1)nc(-c1ccc3c(c1)OCC3)n2C1CCCC1 showed an IC50 (MDA-MB-231 [1]) of 513 nM.

Cn1ccc2cc(-c3nc4cccnc4n3C3CCCC3)ccc21 gave an IC50 (MDA-MB-231 [1]) of 90 nM.

For c1cnc2c(c1)nc(-c1ccc(-c3nnn[nH]3)cc1)n2C1CCCC1, the IC50 (MDA-MB-231 [1]) was 765 nM.

In the case of c1cncc(-c2ccc(-c3nc4cccnc4n3C3CCCC3)cc2)c1, the IC50 (MDA-MB-231 [1]) is reported as greater than 10000 nM.

Compound c1cnc2c(c1)nc(-c1ccc(-c3nnco3)cc1)n2C1CCCC1 has an IC50 (MDA-MB-231 [1]) of 87 nM.

CC(=O)O[C@H]1C(=O)[C@@]2(C)[C@H]([C@H](OC(=O)c3ccccc3)[C@]3(O)C[C@H](OC(=O)[C@H](O)[C@@H](NC(=O)c4ccccc4)c4ccccc4)C(C)=C1C3(C)C)[C@]1(OC(C)=O)CO[C@@H]1C[C@@H]2O [PACLITAXEL] showed an IC50 (MDA-MB-231 [1]) of 457 nM, an IC50 [5] of 8 nM and an IC50 [6] of 5100 nM. It also gave an IC50 [8] of 7 nM.
